The source of these data is US20170334899A1, “AMINO-SUBSTITUTED ISOTHIAZOLES” (Bayer Pharma Aktiengesellschaft, priority 2014, published 2017).

Molecules are shown by their SMILES. “And” between values parts separate entries of the source, which are not always exact repeats. Equal entries are not always repeated.

The assay deals with T1, human kinase Mps-1 (Homo sapiens, UniProt P33981).
T1 construct: N-terminally GST-tagged human full length recombinant Mps-1 kinase; GST (N); purchased Invitrogen, Karslruhe, Germany PV4071
T1 sequence (P33981 1-857): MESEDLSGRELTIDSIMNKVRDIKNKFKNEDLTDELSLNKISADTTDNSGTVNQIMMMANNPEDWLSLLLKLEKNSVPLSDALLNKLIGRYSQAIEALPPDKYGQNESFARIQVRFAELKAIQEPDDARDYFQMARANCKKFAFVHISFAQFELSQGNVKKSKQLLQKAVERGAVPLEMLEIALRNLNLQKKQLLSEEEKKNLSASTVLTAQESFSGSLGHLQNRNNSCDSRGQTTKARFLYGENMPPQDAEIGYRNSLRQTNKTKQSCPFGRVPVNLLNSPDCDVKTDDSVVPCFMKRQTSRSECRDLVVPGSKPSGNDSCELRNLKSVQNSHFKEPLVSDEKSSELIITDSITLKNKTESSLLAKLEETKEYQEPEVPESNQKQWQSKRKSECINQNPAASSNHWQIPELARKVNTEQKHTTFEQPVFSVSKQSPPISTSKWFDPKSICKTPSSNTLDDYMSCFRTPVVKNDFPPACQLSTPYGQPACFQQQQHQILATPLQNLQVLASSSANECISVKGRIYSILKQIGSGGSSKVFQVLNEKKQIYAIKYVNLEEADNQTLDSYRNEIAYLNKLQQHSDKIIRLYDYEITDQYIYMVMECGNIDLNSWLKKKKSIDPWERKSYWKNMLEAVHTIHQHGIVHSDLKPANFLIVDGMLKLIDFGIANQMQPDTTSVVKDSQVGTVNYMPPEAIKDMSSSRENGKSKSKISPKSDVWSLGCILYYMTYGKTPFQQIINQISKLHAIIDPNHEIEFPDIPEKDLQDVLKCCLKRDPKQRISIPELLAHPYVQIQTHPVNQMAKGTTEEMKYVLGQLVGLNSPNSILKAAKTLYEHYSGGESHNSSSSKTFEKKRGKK
In words: Mps-1 kinase assay (TR-FRET). The note with it: Mps-1 TR-FRET kinase assay; avg; read-out: Mps1 avg (IC50 [mol/l]). Format: biochemical. The method, boiled down:
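Inhibition normalised between uninhibited reaction (0%) and enzyme-free wells (100%), using the blank-corrected TR-FRET 665/620 nm ratio after EDTA stop. Reaction: ~0.5 nM GST-Mps-1 full length, 10 μM ATP, 1 μM biotin-peptide, 60 min at 22 °C, after 15 min compound pre-binding, pH 7.7.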
Background: Time-resolved FRET reads energy transfer from a long-lived donor to a nearby acceptor.

`Cc1nsc(Nc2cnc3ccccc3n2)c1C(=O)Nc1ccc(C(N)=O)c(F)c1` [Example 201, N-(4-carbamoyl-3-fluorophenyl)-3-methyl-5-(quinoxalin-2-ylamino)-1,2-thiazole-4-carboxamide]: the IC50 was more than 20 µM.
The value for `Cc1nsc(Nc2cnc3ccccc3n2)c1C(=O)Nc1ccc(OC2CCN(C(=O)OC(C)(C)C)CC2)nc1` [Example 18, tert-Butyl 4-{[5-({[3-methyl-5-(quinoxalin-2-ylamino)-1,2-thiazol-4-yl]carbonyl}-amino)pyridin-2-yl]oxy}piperidine-1-carboxylate] was not below 20 µM; that for `Cc1nsc(Nc2cc(C#N)ccn2)c1C(=O)Nc1cccc(C(=O)OC(C)(C)C)c1` [Example 239, tert-butyl 3-[({5-[(4-cyanopyridin-2-yl)amino]-3-methyl-1,2-thiazol-4-yl}carbonyl)amino]benzoate] was more than 20 µM.
The value for `Cc1nsc(Nc2cnc(C(F)(F)F)cn2)c1C(=O)Nc1ccc(OCCN)c(F)c1` [Example 221, 3-N-[4-(2-aminoethoxy)-3-fluorophenyl]-3-methyl-5-{[5-(trifluoromethyl)pyrazin-2-yl]amino}-1,2-thiazole-4-carboxamide] was more than 20 µM; that for `Cc1nsc(Nc2cc(C#N)ccn2)c1C(=O)Nc1ccc(C(=O)OC(C)(C)C)cc1` [Example 182, tert-butyl 4-[({5-[(4-cyanopyridin-2-yl)amino]-3-methyl-1,2-thiazol-4-yl}carbonyl)amino]benzoate] was more than 20 µM; that for `Cc1nsc(Nc2cnc3ccccc3n2)c1C(=O)Nc1ccc(OC2CCN(CC(F)F)CC2)nc1` [Example 20, N-(6-{[1-(2,2-difluoroethyl)piperidin-4-yl]oxy}pyridin-3-yl)-3-methyl-5-(quinoxalin-2-ylamino)-1,2-thiazole-4-carboxamide] was not below 20 µM.
The value for `Cc1nsc(Nc2ccc(C#N)cn2)c1C(=O)Nc1cccc(N)c1` [Example 180, N-(3-aminophenyl)-5-[(5-cyanopyridin-2-yl)amino]-3-methyl-1,2-thiazole-4-carboxamide] was more than 20 µM.
As for `Cc1nsc(Nc2cnc(C(F)(F)F)cn2)c1C(=O)Nc1ccc(OCCNC(=O)OC(C)(C)C)nc1` [Example 192, tert-butyl {2-[(5-{[(3-methyl-5-{[5-(trifluoromethyl)pyrazin-2-yl]amino}-1,2-thiazol-4-yl)carbonyl]amino}pyridin-2-yl)oxy]ethyl}carbamate], the IC50 is more than 20 µM.
The figure for `Cc1nsc(Nc2cnc3ccccc3n2)c1C(=O)Nc1ccc(Nc2ccc(F)c(F)c2)nc1` [Example 245, N-{6-[(3,4-difluorophenyl)amino]pyridin-3-yl}-3-methyl-5-(quinoxalin-2-ylamino)-1,2-thiazole-4-carboxamide] is > 20 µM and 19 µM; for `Cc1nsc(Nc2cncc(C(F)(F)F)n2)c1C(=O)Nc1ccc(OCCCN)nc1` [Example 209, N-[6-(3-aminopropoxy)pyridin-3-yl]-3-methyl-5-{[6-(trifluoromethyl)pyrazin-2-yl]amino}-1,2-thiazole-4-carboxamide] it is more than 20 µM.
The value for `Cc1nsc(Nc2cncc(C(F)(F)F)n2)c1C(=O)Nc1ccc(OC2CCN(CC(F)F)CC2)c(F)c1` [Example 224, N-(4-{[1-(2,2-difluoroethyl)piperidin-4-yl]oxy}-3-fluorophenyl)-3-methyl-5-{[6-(trifluoromethyl)pyrazin-2-yl]amino}-1,2-thiazole-4-carboxamide] was more than 20 µM; that for `Cc1nsc(Nc2cnc3ccccc3n2)c1C(=O)Nc1cccc(NC(=O)OC(C)(C)C)c1` [Example 178, tert-butyl [3-({[3-methyl-5-(quinoxalin-2-ylamino)-1,2-thiazol-4-yl]carbonyl}amino)-phenyl]carbamate] was more than 20 µM.
The figure for `COC(=O)c1cc(NC(=O)c2c(C)nsc2Nc2cnc3ccccc3n2)cc(C(=O)OC)c1` [Example 237, dimethyl 5-({[3-methyl-5-(quinoxalin-2-ylamino)-1,2-thiazol-4-yl]carbonyl}amino)isophthalate] is more than 20 µM.
